US20210121527A1, “METHODS OF TREATING MINIMAL RESIDUAL CANCER” (ICAHN SCHOOL OF MEDICINE AT MOUNT SINAI, priority 2018, published 2021)
pIC50: −log10 of the molar value.

How the values were obtained:
[1] = biological target: T1, Recombinant human EIF2AK3 (PERK) catalytic domain (Homo sapiens, UniProt Q9NZJ5); assay: PERK biochemical TR-FRET kinase assay using purified eIF2a as substrate; conditions: read-out: PERK Enzyme IC50
T1 construct: catalytic domain (amino acids 536-1116; Cat # PV5107); purchased Invitrogen (Carlsbad, Calif.) PV5107
T1 sequence (Q9NZJ5 536-1116): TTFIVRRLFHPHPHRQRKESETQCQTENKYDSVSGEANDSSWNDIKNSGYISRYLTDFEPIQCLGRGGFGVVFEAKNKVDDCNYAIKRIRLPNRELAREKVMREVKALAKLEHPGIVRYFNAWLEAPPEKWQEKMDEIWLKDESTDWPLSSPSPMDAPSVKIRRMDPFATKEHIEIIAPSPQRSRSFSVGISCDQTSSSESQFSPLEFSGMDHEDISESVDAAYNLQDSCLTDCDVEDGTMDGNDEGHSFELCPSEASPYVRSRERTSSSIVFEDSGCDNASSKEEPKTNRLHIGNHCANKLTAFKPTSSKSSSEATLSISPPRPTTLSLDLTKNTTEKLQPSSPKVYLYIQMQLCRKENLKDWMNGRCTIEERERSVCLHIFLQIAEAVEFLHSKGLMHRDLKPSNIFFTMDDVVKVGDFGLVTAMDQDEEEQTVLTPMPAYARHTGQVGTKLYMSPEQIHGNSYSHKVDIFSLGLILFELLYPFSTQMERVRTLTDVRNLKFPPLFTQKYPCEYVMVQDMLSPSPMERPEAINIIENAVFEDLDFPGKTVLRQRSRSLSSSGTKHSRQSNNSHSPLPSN
Experimental: (§1) TR-FRET kinase assays were performed in the absence or presence of inhibitors in a reaction buffer consisting of 50 mM HEPES, pH 7.5, 10 mMMgCl2, 1.0 mM EGTA, and 0.01% Brij-35, and 100-200 nM GFP-eIF2a substrate. […] Following the addition of test compound, the reaction was initiated by addition of enzyme and incubated at room temperature for 45 minutes. The reaction was stopped by addition of EDTA to a final concentration of 10 mM and Terbium-labelled phospho-eIF2α antibody was added at a final concentration of 2 nM and incubated for 90 minutes. The resulting fluorescence was monitored in an EnVison® Multilabel reader (PerkinElmer, Waltham, Mass.). TR-FRET ratios and the resulting IC50 values were determined from the fitted inhibition curves. Biochemical specificity profiling was performed at Cerep (Redmond, Wash.) and DiscoverX (San Diego, Calif.).

GCN2 catalytic domain = biological target: T2, GCN2 catalytic domain (Homo sapiens, UniProt Q9P2K8); assay: GCN2 biochemical TR-FRET kinase assay using purified eIF2a as substrate; conditions: read-out: GCN2 Enzyme IC50
T2 construct: HIS-SUMO-GCN2 catalytic domain (amino acids 584-1019); HIS (N); SUMO (N); made in house; host or cells: E. coli
T2 sequence (Q9P2K8 584-1019): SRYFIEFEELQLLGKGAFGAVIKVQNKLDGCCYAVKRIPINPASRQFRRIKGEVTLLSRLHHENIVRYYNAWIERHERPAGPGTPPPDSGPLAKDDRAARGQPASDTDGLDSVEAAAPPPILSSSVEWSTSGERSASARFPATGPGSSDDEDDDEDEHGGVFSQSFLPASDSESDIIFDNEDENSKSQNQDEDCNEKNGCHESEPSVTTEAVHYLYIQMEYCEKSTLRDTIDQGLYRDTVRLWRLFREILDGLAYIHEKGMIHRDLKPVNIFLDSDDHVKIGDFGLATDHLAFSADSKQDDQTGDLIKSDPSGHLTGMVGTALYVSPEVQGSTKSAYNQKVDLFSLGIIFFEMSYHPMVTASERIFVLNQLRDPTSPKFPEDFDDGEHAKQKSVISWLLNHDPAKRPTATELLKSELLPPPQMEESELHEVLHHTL
Experimental: as §1

[2] = biological target: T3, PERK phosphorylation in MCF10A-HER2 cells (Homo sapiens, UniProt Q9NZJ5); assay: Immunoblot of PERK phosphorylation in stressed cells; type: cell-based; conditions: 2 μM; cells in suspension for 24 hours
T3 construct: endogenous in cells; host or cells: MCF10A-HER2 cells in suspension for 24 hours
T3 sequence (Q9NZJ5 30-1116): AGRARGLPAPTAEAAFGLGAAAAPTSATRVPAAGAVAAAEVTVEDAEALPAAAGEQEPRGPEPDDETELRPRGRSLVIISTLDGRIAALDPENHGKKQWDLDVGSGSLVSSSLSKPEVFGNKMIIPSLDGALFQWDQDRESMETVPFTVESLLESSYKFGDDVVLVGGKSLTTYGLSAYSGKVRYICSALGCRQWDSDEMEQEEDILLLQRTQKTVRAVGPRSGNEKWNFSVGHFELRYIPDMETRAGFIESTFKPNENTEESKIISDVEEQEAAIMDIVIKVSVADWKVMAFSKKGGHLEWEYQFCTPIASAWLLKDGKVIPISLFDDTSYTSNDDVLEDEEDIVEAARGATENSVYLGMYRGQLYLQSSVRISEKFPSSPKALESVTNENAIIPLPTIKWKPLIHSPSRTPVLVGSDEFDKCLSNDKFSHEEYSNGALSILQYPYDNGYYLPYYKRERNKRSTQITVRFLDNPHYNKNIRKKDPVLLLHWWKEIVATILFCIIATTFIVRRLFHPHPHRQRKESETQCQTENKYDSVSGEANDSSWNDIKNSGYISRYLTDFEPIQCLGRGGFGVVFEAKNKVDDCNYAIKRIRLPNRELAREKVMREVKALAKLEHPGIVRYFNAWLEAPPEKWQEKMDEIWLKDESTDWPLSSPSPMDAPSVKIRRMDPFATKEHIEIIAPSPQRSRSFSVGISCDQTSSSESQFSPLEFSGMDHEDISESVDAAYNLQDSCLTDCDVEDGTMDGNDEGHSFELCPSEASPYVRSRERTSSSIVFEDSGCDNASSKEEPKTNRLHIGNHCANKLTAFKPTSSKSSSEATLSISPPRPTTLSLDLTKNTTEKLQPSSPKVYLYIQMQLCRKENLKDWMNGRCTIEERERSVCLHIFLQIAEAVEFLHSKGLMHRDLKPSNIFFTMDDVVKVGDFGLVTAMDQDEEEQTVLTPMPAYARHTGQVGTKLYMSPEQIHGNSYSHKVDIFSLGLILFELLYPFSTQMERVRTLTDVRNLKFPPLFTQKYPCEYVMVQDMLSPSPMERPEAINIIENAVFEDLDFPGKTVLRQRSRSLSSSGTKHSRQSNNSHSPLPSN

| Structure (SMILES) | pIC50 [1] | pIC50 (GCN2 catalytic domain) | PERK phosphorylation (immunoblot) [2] |
| --- | --- | --- | --- |
| Cc1cc(NC(=O)[C@H](O)c2cccc(F)c2)ccc1-c1cn(C)c2ncnc(N)c12 [LY3, (2R)-N-[4-(4-amino-7-methyl-pyrrolo[2,3-d]pyrimidin-5-yl)-3-methyl-phenyl]-2-(3-fluorophenyl)-2-hydroxy-acetamide] | 8.70 | 4.79 | inhibition of PERK phosphorylation |
| Cc1cc(NC(=O)[C@H](O)c2cc(F)cc(F)c2)ccc1-c1cnc(N)c(C(=O)NC(C)C)c1 [LY4, 2-amino-5-[4-[[(2R)-2-(3,5-difluorophenyl)-2-hydroxy-acetyl]amino]-2-methyl-phenyl]-N-isopropyl-pyridine-3-carboxamide] | 8.70 | 4.74 | inhibition of PERK phosphorylation |
| Cc1cccc(CC(=O)N2CCc3c2ccc(-c2cn(C)c4ncnc(N)c24)c3F)n1 [GSK2656157, reference compound] | 8.10 | < 3.70 | inhibition of PERK phosphorylation |
| CNC(=O)c1nc(-c2ccc(NC(=O)[C@H](O)c3cc(F)cc(F)c3)cc2C)cnc1N [LY2, 3-amino-6-[4-[[(2R)-2-(3,5-difluorophenyl)-2-hydroxy-acetyl]amino]-2-methyl-phenyl]-N-methyl-pyrazine-2-carboxamide] | 8.70 | 4.97 | inhibition of PERK phosphorylation |
